# Source: patent US20200131196A1 (Mount Tam Therapeutics, Inc., priority 2017, published 2020)
# Where two headings read alike, the source gives them in different places.
# Assays:
# CHP-212 = experiment: OncoPanel cell proliferation assay, CHP-212
# Description: Cells were seeded into 384-well plates and incubated in a humidified atmosphere of 5% CO2 at 37° C. Compounds were added the day following cell seeding. At the same time, a time zero untreated cell plate was generated. After a 3-day incubation period, cells were fixed and stained to allow fluorescence imaging of nuclei. Compounds (1 mM stock solutions) were serially diluted in half-log steps from the highest test concentration (1 micromol), and assayed over 10 concentrations with a maximum assay concentration of 0.1% DMSO. Automated fluorescence microscopy was carried out using a Molecular Devices ImageXpress Micro XL high-content imager, and images were collected with a 4× objective. 16-bit TIFF images were acquired and analyzed with MetaXpress 5.1.0.41 software.
# SK-N-AS = experiment: OncoPanel cell proliferation assay, SK-N-AS; assay type: cell-based, human
# Description: (§1) Cells were grown in RPMI 1640, 10% FBS, 2 mM L-alanyl-L-glutamine, 1 mM Na pyruvate, or a special medium. Cells were seeded into 384-well plates and incubated in a humidified atmosphere of 5% CO2 at 37° C. Compounds were added the day following cell seeding. At the same time, a time zero untreated cell plate was generated. After a 3-day incubation period, cells were fixed and stained to allow fluorescence imaging of nuclei. Compounds (1 mM stock solutions) were serially diluted in half-log steps from the highest test concentration ([…]), and assayed over 10 concentrations with a maximum assay concentration of 0.1% DMSO. Automated fluorescence microscopy was carried out using a Molecular Devices ImageXpress Micro XL high-content imager, and images were collected with a 4× objective. 16-bit TIFF images were acquired and analyzed with MetaXpress 5.1.0.41 software.
# (§2) Cell proliferation was measured by the fluorescence intensity of an incorporated nuclear dye. The output is referred to as the relative cell count, where the measured nuclear intensity is transformed to percent of control (POC) using the following formula: […]
# (§3) Cellular response parameters were calculated using nonlinear regression to a sigmoidal single-site dose response model:
# (§4) EC50 is the test compound concentration at the curve inflection point or half the effective response (parameter C of the fitted curve solution). GI50 is the concentration needed to reduce the observed growth by half (midway between the curve maximum and the time zero value). “Cell Count Activity Area” is an estimate of the integrated area above the curve (Barretina, et al. The Cancer Cell Line Encyclopedia enables predictive modelling of anticancer drug sensitivity. Nature 483: 603-607). […] In rare instances, values <0 or >10 may be observed. […] Curve-fitting, calculations, and report generation was performed using a custom data reduction engine and MathIQ based software (AIM).
# A388 = experiment: OncoPanel cell proliferation assay, A388; assay type: cell-based, human
# Description: as §1, with “Cells” for “Cells were grown in RPMI 1640, 10% FBS, 2 mM L-alanyl-L-glutamine, 1 mM Na pyruvate, or a special medium. Cells”
# as §2, §3
# (§5) GI50 is the concentration needed to reduce the observed growth by half (midway between the curve maximum and the time zero value). […] In rare instances, values <0 or >10 may be observed. […] Curve-fitting, calculations, and report generation was performed using a custom data reduction engine and MathIQ based software (AIM).
# U2OS = experiment: OncoPanel cell proliferation assay, U2OS; assay type: cell-based, human
# Description: as §1, with “Cells” for “Cells were grown in RPMI 1640, 10% FBS, 2 mM L-alanyl-L-glutamine, 1 mM Na pyruvate, or a special medium. Cells”
# as §2, §3, §5
# T24 = experiment: OncoPanel cell proliferation assay, T24; assay type: cell-based, human
# Description: as §1, §2, §3, §4
# NCI-H510A = experiment: OncoPanel cell proliferation assay, NCI-H510A; assay type: cell-based, human
# Description: as §1, §2, §3, §4
# [1] = Homo sapiens, read-out: Cell Count EC50
# [2] = Homo sapiens, read-out: Cell Count GI50
# [3] = Homo sapiens, read-out: Cell Count IC50
smiles,measurement,setting,value
"CO[C@H]1C[C@@H]2CC[C@@H](C)[C@@](O)(O2)C(=O)C(=O)N2CCCC[C@H]2C(=O)O[C@H]([C@H](C)C[C@H]2C[C@H]3C[C@@H]2C[C@@H]3O)CC(=O)[C@H](C)/C=C(\C)[C@@H](O)[C@@H](OC)C(=O)[C@H](C)C[C@H](C)/C=C/C=C/C=C/1C [Formula II, C37-[(1R,2S,4R,5S)-5-hyhroxybicyclo[2.2.1]heptane] rapamycin]",Cell Count Activity Area,CHP-212; CHP-212,3.87
same,Relative cell count (%) Mean,"CHP-212; CHP-212, 1.00E+00 microM",43.7%
same,Relative cell count (%) Mean,"CHP-212; CHP-212, 1.00E-01 microM",47.0%
same,Relative cell count (%) Mean,"CHP-212; CHP-212, 1.00E-02 microM",57.6%
same,Relative cell count (%) Mean,"CHP-212; CHP-212, 1.00E-03 microM",59.5%
same,Relative cell count (%) Mean,"CHP-212; CHP-212, 1.01E-04 microM",82.6%
same,Relative cell count (%) Mean,"CHP-212; CHP-212, 3.16E-01 microM",46.9%
same,Relative cell count (%) Mean,"CHP-212; CHP-212, 3.17E-02 microM",54.5%
same,Relative cell count (%) Mean,"CHP-212; CHP-212, 3.17E-03 microM",59.2%
same,Relative cell count (%) Mean,"CHP-212; CHP-212, 3.18E-04 microM",68.8%
same,Relative cell count (%) Mean,"CHP-212; CHP-212, 3.18E-05 microM",93.4%
same,EC50,"CHP-212; Homo sapiens, CHP-212, read-out: Cell Count EC50",0.267 nM
same,GI50,"CHP-212; Homo sapiens, CHP-212, read-out: Cell Count GI50",0.349 nM
same,IC50,"CHP-212; Homo sapiens, CHP-212, read-out: Cell Count IC50",34 nM
same,Cell Count Activity Area,SK-N-AS,3.12
same,Relative cell count (%) Mean,SK-N-AS; 1.00E+00 microM,49.7%
same,Relative cell count (%) Mean,SK-N-AS; 1.00E-01 microM,54.0%
same,Relative cell count (%) Mean,SK-N-AS; 1.00E-02 microM,55.3%
same,Relative cell count (%) Mean,SK-N-AS; 1.00E-03 microM,77.8%
same,Relative cell count (%) Mean,SK-N-AS; 1.01E-04 microM,99.5%
same,Relative cell count (%) Mean,SK-N-AS; 3.16E-01 microM,49.5%
same,Relative cell count (%) Mean,SK-N-AS; 3.17E-02 microM,55.1%
same,Relative cell count (%) Mean,SK-N-AS; 3.17E-03 microM,70.3%
same,Relative cell count (%) Mean,SK-N-AS; 3.18E-04 microM,89.7%
same,Relative cell count (%) Mean,SK-N-AS; 3.18E-05 microM,97.7%
same,EC50,SK-N-AS; [1],1.41 nM
same,GI50,SK-N-AS; [2],4.82 nM
same,IC50,SK-N-AS; [3],422 nM
same,Cell Count Activity Area,A388,1.60
same,Relative cell count (%) Mean,A388; 1.00E+00 microM,62.7%
same,Relative cell count (%) Mean,A388; 1.00E-01 microM,65.6%
same,Relative cell count (%) Mean,A388; 1.00E-02 microM,79.8%
same,Relative cell count (%) Mean,A388; 1.00E-03 microM,80.8%
same,Relative cell count (%) Mean,A388; 1.01E-04 microM,95.5%
same,Relative cell count (%) Mean,A388; 3.16E-01 microM,62.3%
same,Relative cell count (%) Mean,A388; 3.17E-02 microM,66.7%
same,Relative cell count (%) Mean,A388; 3.17E-03 microM,79.0%
same,Relative cell count (%) Mean,A388; 3.18E-04 microM,87.7%
same,Relative cell count (%) Mean,A388; 3.18E-05 microM,86.5%
same,EC50,A388; [1],8.24 nM
same,GI50,A388; [2],> 1000 nM
same,IC50,A388; [3],> 1000 nM
same,Cell Count Activity Area,U2OS,2.61
same,Relative cell count (%) Mean,U2OS; 1.00E+00 microM,49.8%
same,Relative cell count (%) Mean,U2OS; 1.00E-01 microM,51.6%
same,Relative cell count (%) Mean,U2OS; 1.00E-02 microM,66.4%
same,Relative cell count (%) Mean,U2OS; 1.00E-03 microM,78.8%
same,Relative cell count (%) Mean,U2OS; 1.01E-04 microM,98.9%
same,Relative cell count (%) Mean,U2OS; 3.16E-01 microM,47.3%
same,Relative cell count (%) Mean,U2OS; 3.17E-02 microM,56.3%
same,Relative cell count (%) Mean,U2OS; 3.17E-03 microM,81.3%
same,Relative cell count (%) Mean,U2OS; 3.18E-04 microM,98.6%
same,Relative cell count (%) Mean,U2OS; 3.18E-05 microM,92.7%
same,EC50,U2OS; [1],5.4 nM
same,GI50,U2OS; [2],35 nM
same,IC50,U2OS; [3],324 nM
same,Cell Count Activity Area,T24,4.16
same,Relative cell count (%) Mean,T24; 1.00E+00 microM,36.6%
same,Relative cell count (%) Mean,T24; 1.00E-01 microM,42.2%
same,Relative cell count (%) Mean,T24; 1.00E-02 microM,52.8%
same,Relative cell count (%) Mean,T24; 1.00E-03 microM,61.8%
same,Relative cell count (%) Mean,T24; 1.01E-04 microM,85.7%
same,Relative cell count (%) Mean,T24; 3.16E-01 microM,40.8%
same,Relative cell count (%) Mean,T24; 3.17E-02 microM,48.5%
same,Relative cell count (%) Mean,T24; 3.17E-03 microM,52.6%
same,Relative cell count (%) Mean,T24; 3.18E-04 microM,69.8%
same,Relative cell count (%) Mean,T24; 3.18E-05 microM,93.2%
same,EC50,"T24; Homo sapiens, T-24, read-out: Cell Count EC50",0.471 nM
same,GI50,"T24; Homo sapiens, T-24, read-out: Cell Count GI50",3.09 nM
same,IC50,"T24; Homo sapiens, T-24, read-out: Cell Count IC50",6.8 nM
same,Cell Count Activity Area,NCI-H510A,2.57
same,Relative cell count (%) Mean,NCI-H510A; 1.00E+00 microM,91.4%
same,Relative cell count (%) Mean,NCI-H510A; 1.00E-01 microM,84.2%
same,Relative cell count (%) Mean,NCI-H510A; 1.00E-02 microM,99.6%
same,Relative cell count (%) Mean,NCI-H510A; 1.00E-03 microM,92.3%
same,Relative cell count (%) Mean,NCI-H510A; 1.01E-04 microM,102.2%
same,Relative cell count (%) Mean,NCI-H510A; 3.16E-01 microM,88.0%
same,Relative cell count (%) Mean,NCI-H510A; 3.17E-02 microM,90.4%
same,Relative cell count (%) Mean,NCI-H510A; 3.17E-03 microM,95.4%
same,Relative cell count (%) Mean,NCI-H510A; 3.18E-04 microM,101.6%
same,Relative cell count (%) Mean,NCI-H510A; 3.18E-05 microM,129.0%
same,EC50,"NCI-H510A; Homo sapiens, NCl-H510A, Lung, Small cell lung cancer (SCLC), summary Table 5, read-out: EC50",0.072 nM
same,EC50,NCI-H510A; [1],0.0717 nM
same,GI50,NCI-H510A; [2],> 1000 nM
same,IC50,NCI-H510A; [3],> 1000 nM
